{"source": "patent US6967102B1", "about": "“Nitric oxide manipulation of muscle satellite cell activation” (University of Manitoba, priority 1999, dated 2005)", "key": {"satellite cells": {"system": "satellite cells", "test": "Cell yield time course 0–30 min after crush injury of right tibialis anterior, normal mice", "type": "in vivo, normal mice (C57BL/6)"}, "dystrophic muscle": {"system": "dystrophic muscle", "test": "Longer term systemic L-NAME treatment, severity of dystrophy in mdx mice", "type": "in vivo", "settings": "systemic L-NAME (3 weeks / drinking water); young mdx animals; diaphragm, SOL, EDL, TA", "description": "The present results address for the first time the initial steps of satellite cell activation. A single exposure to NOS inhibition had subtle effects on myotube formation that echo NO-stimulated myoblast fusion in vitro. Longer NOS inhibition reduced the effectiveness of repair and restricted its distribution, in agreement with the idea that shear-induced responses become attenuated longitudinally away from the injury. The significant negative effect of pharmacologic NOS inhibition on myogenic repair reported here was further extended by the recent preliminary studies on repair in NOS-I knockout mice (n≈2), and during longer term NOS inhibition in mdx mice (n≈22).\nA study of 4 groups (n≈10/group) of mdx dystrophic mice treated with placebo, deflazacort, deflazacort plus L-NAME (a NOS inhibitor), or deflazacort plus L-arginine (a […]). Deflazacort was given by daily injection (ip) and L-NAME and L-arginine were given systemically in the drinking water."}, "regenerating mdx muscles": {"system": "regenerating mdx muscles", "test": "Muscle regeneration 6 days after crush injury, mdx mice", "type": "in vivo", "settings": "single L-NAME injection", "procedure": "(§1) The time course of treatment effects was determined at two intervals; during the early response 0, 5, 10 and 30 min after injury, and over the longer term after 6 days recovery. Short term experiments were repeated at least twice. The longer term animals were maintained either on plain drinking water or water containing fresh L-NAME at 12.5 mg/100 ml (30 mg/kg/day), based on an intake of 6–7 ml/day/mouse (McIntosh et al., 1994. 17:444–453). In the longer term repair studies, there were 4 normal mice in each of saline- and L-NAME-treated groups. An additional 2 normal and 2 mdx mice were injected once before injury with L-NAME and given plain water for 6 days.\nSections and cultures were viewed on an Olympus microscope equipped with epifluorescence and phase contrast optics. Observations were based on systematic viewing of 2–4 longitudinal sections per muscle (separated by […]). In the case of muscle regenerating from crush injury, observations (without knowledge of treatment group) were made in pre-set fields of muscle from the central crush region, the adjacent regenerating region and the surviving region as reported (McIntosh et al. (1994) Muscle Nerve 17: 444–453). Representative photographs of muscle fibers and satellite cells were taken on over 700 frames of ASA 400 Fuji Sensia slide film. […]"}, "regenerating muscle": {"system": "regenerating muscle", "test": "Muscle regeneration 6 days after crush injury, normal mice", "type": "in vivo", "procedure": "as §1\nIn the longer term study of NOS inhibition during repair, saline and L-NAME-treated normal mice recovered for 6 days. Two mice per group were injected 2 hr before sacrifice with BrdU (i.p., 1.6 mg in 0.4 ml saline) and sections were immunostained using anti-BrdU antibodies as above.\nSections and cultures were viewed on an Olympus microscope equipped with epifluorescence and phase contrast optics. Observations were based on systematic viewing of 2–4 longitudinal sections per muscle (separated by […]). In the case of muscle regenerating from crush injury, observations (without knowledge of treatment group) were made in pre-set fields of muscle from the central crush region, the adjacent regenerating region and the surviving region as reported (McIntosh et al. (1994) Muscle Nerve 17: 444–453). Representative photographs of muscle fibers and satellite cells were taken on over 700 frames of ASA 400 Fuji Sensia slide film. Where stated, the number of satellite cells observed in each category, group or condition was estimated from photographed slides rather than from direct counts made during observations under oil immersion. Selected slides were scanned (Olympus Film Scanner ES-10, Olympus Optical Co., Tokyo), formatted into plates with little or no enlargement and printed (Freehand 8.0, Macromedia Inc.)."}}, "note": "Entries after “also recorded” stand apart in the source; their conditions may differ.", "data": [{"molecule": "COC(=O)[C@@H](N)CCCNC(=N)N[N+](=O)[O-]", "note": "[L-NAME, Nω-nitro-L-arginine methyl ester]", "values": [{"measurement": "time of delayed peak RTA yield after injury", "setting": "satellite cells; L-NAME 3 mg/kg, one experiment", "value": "< 10", "unit": "min"}, {"measurement": "LTA cell yield at 10 min relative to 0 min", "setting": "satellite cells; L-NAME 7.5 mg/kg", "value": 2, "unit": "fold"}, {"measurement": "RTA cell yield at 10 min relative to 0 min", "setting": "satellite cells; L-NAME 7.5 mg/kg", "value": 3.5, "unit": "fold"}, {"measurement": "time after injury until which the increased RTA cell yield is delayed", "setting": "satellite cells; L-NAME 7.5 mg/kg ip 30 min before crush", "value": 10, "unit": "min"}, {"measurement": "initial injury-induced rise in RTA cell yield", "setting": "satellite cells; L-NAME 7.5 mg/kg ip 30 min before crush, 0 min", "value": "preventing the initial injury-induced rise in RTA yield; also recorded: absent after L-NAME"}, {"measurement": "LTA cell yield lower than in saline-treated mice", "setting": "satellite cells; L-NAME 7.5 mg/kg, 0 min", "value": 15, "unit": "%"}, {"measurement": "RSOL cell yield lower than in saline-treated mice", "setting": "satellite cells; L-NAME 7.5 mg/kg, 0 min", "value": 50, "unit": "%"}, {"measurement": "fewer cells isolated from RTA than LTA", "setting": "satellite cells; L-NAME 7.5 mg/kg, 0 min", "value": 30, "unit": "%"}, {"measurement": "time of delayed peak RTA yield after injury", "setting": "satellite cells; L-NAME 10 or 12.5 mg/kg, one experiment at each dose", "value": "> 10", "unit": "min"}, {"measurement": "peak cell yield in RTA", "setting": "satellite cells; L-NAME ip 30 min before crush", "value": "delayed (not reduced)"}, {"measurement": "peak in cell yield from LTA (at 10 min.)", "setting": "satellite cells; L-NAME ip 30 min before crush", "value": "reduced but not delayed; also recorded: reduced by L-NAME treatment"}, {"measurement": "severity of dystrophy", "setting": "dystrophic muscle", "value": "appeared to increase the severity of dystrophy; also recorded: makes dystrophy more severe"}, {"measurement": "new myotubes in continuity with satellite cells, anchored inside external lamina sheaths", "setting": "regenerating mdx muscles; 6 days", "value": "roughly 5%"}, {"measurement": "regenerating muscle over 6 days", "setting": "regenerating mdx muscles; n=2", "value": "subtle changes in regenerating mdx muscles"}, {"measurement": "muscle regeneration", "setting": "regenerating muscle; L-NAME in drinking water (30 mg/kg/day) over 6 days of repair, n=4", "value": "muscle regeneration was reduced; also recorded: reduces normal muscle regeneration"}, {"measurement": "density of myotubes per field vs saline-treated mice", "setting": "regenerating muscle; L-NAME over 6 days of repair", "value": "much lower density per field"}, {"measurement": "branched myotubes", "setting": "regenerating muscle; longer term L-NAME exposure of regenerating mdx and normal muscle in vivo", "value": "high prevalence of branched myotubes"}, {"measurement": "myotubes appearing as incompletely fused blocks of cells", "setting": "regenerating muscle; single injection of L-NAME before injury, 6 days, estimated", "value": "5–10%"}, {"measurement": "muscle regeneration after 6 days", "setting": "regenerating muscle; single injection of L-NAME before injury, n=2", "value": "subtle effects on muscle regeneration"}]}]}
